Experimental data as given in ChEMBL document CHEMBL1121752, “Cell-specific ligands for selective drug delivery to tissues and organs” (J Med Chem, 1981).

Assays:
[1] = Compound was evaluated for the inhibition of [125I]-labeled D-mannose-bovine serum albumin binding to alveolar macrophages; set-up: species or system Rattus norvegicus
Rattus norvegicus [2] = organism: Rattus norvegicus; experiment: Compound was evaluated for the inhibition of [125I]-labeled D-mannose-bovine serum albumin binding to alveolar macrophages at 50 uM
Rattus norvegicus [3] = organism: Rattus norvegicus; experiment: Compound was evaluated for the inhibition of [125I]-labeled D-mannose-bovine serum albumin binding to alveolar macrophages at 10 uM
Rattus norvegicus [4] = organism: Rattus norvegicus; experiment: Compound was evaluated for the inhibition of [125I]-labeled D-mannose-bovine serum albumin binding to alveolar macrophages at 100 uM

Structure (SMILES)	Ki [1]	inhibition (Rattus norvegicus [2])	inhibition (Rattus norvegicus [3])	inhibition (Rattus norvegicus [4])
CC(C)CCCC(C)C1CCC2C3CC=C4CC(OCCCCCCNC(=O)C(CCCCNC(=O)CCSC5OC(CO)C(O)C(O)C5O)NC(=O)[C@@H](CCCCNC(=O)CCSC5OC(CO)C(O)C(O)C5O)NC(=O)CCSC5OC(CO)C(O)C(O)C5O)CCC4(C)C3CCC12C (stereo partly specified)	4 µM			
O=C(CCSC1OC(CO)C(O)C(O)C1O)NCCCCC(NC(=O)[C@@H](CCCCNC(=O)CCSC1OC(CO)C(O)C(O)C1O)NC(=O)CCSC1OC(CO)C(O)C(O)C1O)C(=O)O (stereo in doubt; 14) [listing 1 of 2 here]		81%	43%	89%
CC(=O)C(CCCC/N=C(/N)CSC1OC(CO)C(O)C(O)C1O)NC(=O)[C@@H](CCCC/N=C(\N)CSC1OC(CO)C(O)C(O)C1O)/N=C(\N)CSC1OC(CO)C(O)C(O)C1O (stereo partly specified)	6 µM			
O=C(CCSC1OC(CO)C(O)C(O)C1O)NCCCCC(NC(=O)[C@@H](CCCCNC(=O)CCSC1OC(CO)C(O)C(O)C1O)NC(=O)CCSC1OC(CO)C(O)C(O)C1O)C(=O)O (stereo in doubt; 31)		0%	0%	2%
N/C(CSC1OC(CO)C(O)C(O)C1O)=N\CCCC[C@@H](/N=C(\N)CSC1OC(CO)C(O)C(O)C1O)C(=O)O (stereo partly specified)	100 µM			
O=C(CSC1OC(CO)C(O)C(O)C1O)NCCCCC(NC(=O)[C@@H](CCCCNC(=O)CSC1OC(CO)C(O)C(O)C1O)NC(=O)CSC1OC(CO)C(O)C(O)C1O)C(=O)O (stereo partly specified)		68%	27%	81%
NCCCCCCNC(=O)C(CCCCNC(=O)CCSC1OC(CO)C(O)C(O)C1O)NC(=O)[C@@H](CCCCNC(=O)CCSC1OC(CO)C(O)C(O)C1O)NC(=O)CCSC1OC(CO)C(O)C(O)C1O (stereo partly specified)	8 µM			5%
O=C(CCSC1OC(CO)C(O)C(O)C1O)NCCCCC(NC(=O)[C@@H](CCCCNC(=O)CCSC1OC(CO)C(O)C(O)C1O)NC(=O)CCSC1OC(CO)C(O)C(O)C1O)C(=O)O (stereo in doubt; 14) [listing 2 of 2 here]	3.9 µM			
O=C(CCSC1OC(CO)C(O)C(O)C1O)NCCCCC(NC(=O)C(CCCCNC(=O)CCSC1OC(CO)C(O)C(O)C1O)NC(=O)[C@@H](CCCCNC(=O)CCSC1OC(CO)C(O)C(O)C1O)NC(=O)CCSC1OC(CO)C(O)C(O)C1O)C(=O)O (stereo partly specified)	3.6 µM			
O=C(CCSC1OC(CO)C(O)C(O)C1O)NCCCC[C@@H](NC(=O)CCSC1OC(CO)C(O)C(O)C1O)C(=O)O (stereo partly specified)	6.2 µM			
CC1OC(SCCC(=O)NCCCCC(NC(=O)[C@@H](CCCCNC(=O)CCSC2OC(C)C(O)C(O)C2O)NC(=O)CCSC2OC(C)C(O)C(O)C2O)C(=O)O)C(O)C(O)C1O (stereo partly specified)			9%	45%
O=C(CCSC1OC(CO)C(O)C(O)C1O)NCCCCC(NC(=O)[C@@H](CCCCNC(=O)CCSC1OC(CO)C(O)C(O)C1O)NC(=O)CCSC1OC(CO)C(O)C(O)C1O)C(=O)NCCCCCCNC(=O)CCc1ccc(O)cc1 (stereo partly specified)	9.3 µM			
O=C(CCSC1OC(CO)C(O)C(O)C1O)NCCCC[C@H](NC(=O)CCSC1OC(CO)C(O)C(O)C1O)C(=O)O (stereo partly specified)	7.7 µM			
